From patent US12291529B2, “Heterocyclic GLP-1 agonists” (Gasherbrum Bio, Inc., priority 2023, dated 2025)
Values after ≈ are worked out from the molar mass of the structure shown.

Assays:
[1] = Caco-2 permeability / efflux study; format: in vitro ADME; conditions: human; for Papp at 2 h, 10 μM: Caco-2, pH 7.4, 10 μM, 37° C., pH 7.4, 0.5% BSA, read-out: Caco-2 Perm; for efflux ratio at 2 h, 10 μM: Caco-2, pH 7.4, Caco-2 efflux ratio
Procedure: Incubations with Caco-2 cell monolayers were performed in duplicate in a 96-well Transwell plate. Transport buffer solution (HBSS, 10 mM HEPES, pH 7.4, with 0.5% BSA) containing test article (10 μM), and either the control compounds metoprolol (10 μM), cimetidine (10 μM) and erythromycin (10 μM), was added to appropriate donor wells of the apical or basolateral plate. The transport buffer with DMSO was added to appropriate wells of receiver wells. Following incubation at 37° C. for 2 hours, the cell plates were removed and 50 μL samples from both apical and basolateral sides were transferred into new 96-well plates. Subsequently, 200 μL of acetonitrile containing internal standard was added to all samples to precipitate protein prior to analysis by UPLC-MS/MS. Lucifer yellow was used as a marker to confirm the integrity of the cell monolayers after 2 hours incubation.

FaSSIF solubility = format: physicochemical; conditions: FaSSIF buffer, 25 °C, fassif, thermodynamic from solid
Procedure: Stock solution of test article and control compound (chlorpromazine, astemizole, and phenytoin) were prepared in DMSO at 10 mM. 50 μL each of stock solutions were dried down, followed by reconstitution to 1 mM with FaSSIF buffer in the well. The incubation plate was shaked at 25° C., 1,100 rpm for 4 hours. And then, the samples were filtered by using the vacuum manifold. 10 μL aliquots from each well was transferred to a new 96-well plate and adjust the volume to 80 μL with blank buffer. Using a mixture of H2O and acetonitrile containing internal standard (1:1) to dilute the sample 100-fold, 500-fold and 2,500-fold. The samples are evaluated by LC/MS/MS analysis. All compounds were tested in singlet.

GLP-1 Receptor = GLP-1 Receptor (Homo sapiens, UniProt P43220); assay: GLP-1R agonist cAMP stimulation assay (HEK293/GLP1R/CRE-LUC cells, Cisbio cAMP dynamic 2 kit); format: cell-based
Sequence of GLP-1 Receptor (P43220 24-463, species assumed): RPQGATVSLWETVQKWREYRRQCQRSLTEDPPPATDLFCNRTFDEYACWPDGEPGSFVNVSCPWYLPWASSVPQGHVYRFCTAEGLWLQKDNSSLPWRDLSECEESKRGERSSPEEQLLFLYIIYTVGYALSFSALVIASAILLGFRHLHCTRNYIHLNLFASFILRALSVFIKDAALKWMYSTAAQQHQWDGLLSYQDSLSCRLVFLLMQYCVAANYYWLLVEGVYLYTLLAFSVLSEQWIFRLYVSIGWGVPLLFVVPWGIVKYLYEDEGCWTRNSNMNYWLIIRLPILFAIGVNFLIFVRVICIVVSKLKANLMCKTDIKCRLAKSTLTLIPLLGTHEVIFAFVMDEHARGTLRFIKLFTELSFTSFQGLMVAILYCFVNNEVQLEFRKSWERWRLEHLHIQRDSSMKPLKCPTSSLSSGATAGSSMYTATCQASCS
Outline: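 cAMP was measured by HTRF (d2/cryptate, 1 h RT, 665 and 615 nm). Beforehand, compounds in half-log series were incubated 30 min at 37 °C with GLP-1R/CRE-Luc HEK293 cells (1000 per well) in IBMX (0.5 mM)-containing DPBS/BSA. Activity scaled between vehicle and maximal control.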

[2] = Rat PO PK study, Method B; format: in vivo, male Sprague Dawley (SD) rats; conditions: for AUC / Cmax: male, Sprague Dawley, plasma, 10% solutol HS 15
Procedure: Pharmacokinetics (PK) study was conducted on male Sprague Dawley (SD) rats by oral gavage (PO). Rats in PO route (n=3) were free access to food and water. […] On the day of experiment, test article was administered via oral gavage (commonly at 10, 30, or 100 mg/kg, with dose volume as 10 mL/kg). Blood samples were collected via serial bleeding at ˜8 time points from 0.25 to 24 hrs post dose. Approximate 150 μL of blood/time point was collected into KzEDTA tube via tail vein or jugular vein. Blood samples were put on wet ice and centrifuged to obtain plasma samples and plasma samples were submitted to LC-MS/MS for sample analysis. Pharmiacokinetics parameters, including Cmax, and area under the curve (AUC), etc. were calculated by non-compartmental model using WinNonlin.

[3] = Rat IV/PO PK study, Method A; format: in vivo, male Sprague Dawley (SD) rats; conditions: male, Sprague Dawley, plasma
Procedure: Pharmacokinetics (PK) study was conducted on male Sprague Dawley (SD) rats by two delivery routes intravenous (IV) and/or oral gavage (PO). Rats in IV route (n=3) were free access to food and water. Rats in PO route (n=3) were fasted overnight and fed at 4 hrs post dosing. Test article was formulated in solution (10% solutol HS 15 in saline) for IV route and solution or suspension (10% solutol HS 15 in saline/water) for PO route, respectively. On the day of experiment, test article was administered via vein (e.g. foot dorsal vein) injection (commonly at 1 mg/kg and 5 mL/kg) for IV route or via oral gavage (commonly at 2 or 5 mg/kg and 5 mL/kg) for PO route, respectively. Blood samples were collected via serial bleeding at ˜8 time points from 0.083 to 24 hrs post dose. Approximate 150 μL of blood/time point was collected into K2EDTA tube via tail vein or jugular vein. Blood samples were put on wet ice and centrifuged to obtain plasma samples and plasma samples were submitted to LC-MS/MS for sample analysis. Pharmacokinetics parameters, including elimination half life (t1/2) (IV), area under the curve (AUC) and oral bioavailability (F %), etc. were calculated by non-compartmental model using WinNonlin.

[4] = Table 3, HEK293/GLP1R/CRE-LUC cells, 30 min
[5] = PO, 2 mg/kg, *obtained under method 3A

| SMILES | Papp at 2 h, 10 μM [1] | efflux ratio at 2 h, 10 μM [1] | solubility at 4 h (FaSSIF solubility) | EC50 (GLP-1 Receptor; [4]) | EC50 (GLP-1 Receptor; Table 4) | rat PK dose proportionality of exposure ([2]; free form, same formulation) | AUC ([2]; 10 mg/kg) | Cmax ([2]; 10 mg/kg) | AUC ([2]; 30 mg/kg) | Cmax ([2]; 30 mg/kg) | half-life ([3]; 1 mg/kg, elimination half life (IV), Method A) | bioavailability ([3]; PO vs IV, Method A, read-out: Bioavailablility (% F)) | AUC [3, 5] | Cmax [3, 5] |
| --- | --- | --- | --- | --- | --- | --- | --- | --- | --- | --- | --- | --- | --- | --- |
| CCS(=O)(=NC)c1ccc(-n2ccn(-c3c4c(nn3-c3cc(C)c(F)c(C)c3)CCN(C(=O)c3cc5cc([C@H]6CCOC(C)(C)C6)ccc5n3[C@@]3(c5noc(=O)[nH]5)C[C@@H]3C)[C@H]4C)c2=O)c(F)c1C (single isomer, unassigned) [Compound 216] | 0.32 ×10⁻⁶ cm/s | 15.7 | 7.9 µM (≈ 7.49 µg/mL) | 0.065 nM | 0.068 nM |  |  |  |  |  |  |  |  |  |
| CN=S(=O)(c1ccc(-n2ccn(-c3c4c(nn3-c3cc(C)c(F)c(C)c3)CCN(C(=O)c3cc5cc([C@H]6CCOC(C)(C)C6)ccc5n3[C@@]3(c5noc(=O)[nH]5)C[C@@H]3C)[C@H]4C)c2=O)c(F)c1Cl)C1CC1 (single isomer, unassigned) [Compound 214] | 0.34 ×10⁻⁶ cm/s | 11.4 | 9.9 µM (≈ 9.71 µg/mL) | 0.033 nM | 0.033 nM |  |  |  |  |  |  |  |  |  |
| Cc1cc(-n2nc3c(c2-n2ccn(-c4ccc(N5CCCS5(=O)=O)cc4)c2=O)[C@H](C)N(C(=O)c2cc4cc(C5CCOCC5)ccc4n2[C@@]2(c4noc(=O)[nH]4)C[C@@H]2C)CC3)cc(C)c1F [Compound C-4, reference compound] | 0.18 ×10⁻⁶ cm/s | 16.7 | 5.38 µM (≈ 4.85 µg/mL) |  | 0.14 nM |  |  |  |  |  |  |  |  |  |
| CN=S(C)(=O)c1ccc(-n2ccn(-c3c4c(nn3-c3cc(C)c(F)c(C)c3)CCN(C(=O)c3cc5cc(C6CCOCC6)ccc5n3[C@@]3(c5noc(=O)[nH]5)C[C@@H]3C)[C@H]4C)c2=O)cc1 (single isomer, unassigned) [Compound 121] | 0.1 ×10⁻⁶ cm/s | 90.8 | 7.3 µM (≈ 6.38 µg/mL) | 0.019 nM | 0.015 nM |  |  |  |  |  |  |  |  |  |
| Cc1cc(-n2nc3c(c2-n2ccn(-c4ccc(S(=O)(=O)C5CC5)cc4)c2=O)[C@H](C)N(C(=O)c2cc4cc(C5CCOCC5)ccc4n2[C@@]2(c4noc(=O)[nH]4)C[C@@H]2C)CC3)cc(C)c1F [Compound C-2, reference compound] | < 0.05 ×10⁻⁶ cm/s | > 62.6 | 9.3 µM (≈ 8.25 µg/mL) |  | 0.043 nM |  |  |  |  |  |  |  |  |  |
| CCS(=O)(=NC)c1ccc(-n2ccn(-c3c4c(nn3-c3cc(C)c(F)c(C)c3)CCN(C(=O)c3cc5cc(C6CCOCC6)ccc5n3[C@@]3(c5noc(=O)[nH]5)C[C@@H]3C)[C@H]4C)c2=O)cc1 (single isomer, unassigned) [Compound 144] | 0.36 ×10⁻⁶ cm/s | 24.1 | 2.56 µM (≈ 2.27 µg/mL) | 0.017 nM | 0.017 nM |  |  |  |  |  |  |  |  |  |
| Cc1cc(-n2nc3c(c2-n2ccn(-c4ccc5c(cnn5C)c4F)c2=O)[C@H](C)N(C(=O)c2cc4cc([C@H]5CCOC(C)(C)C5)ccc4n2[C@@]2(c4noc(=O)[nH]4)C[C@@H]2C)CC3)cc(C)c1F [Compound C-5, reference compound] | 0.21 ×10⁻⁶ cm/s |  | 0.4 µM (≈ 0.353 µg/mL) |  |  | plateaued at 10 mg/kg | 14500 ng·h/mL | 1250 ng/mL | 13000 ng·h/mL | 1010 ng/mL | 8.1 h | 36% | 4400 ng·h/mL | 573 ng/mL |
